Results taken from EP0385936A1, “Peptide lactone and derivatives thereof, process for their production and means for carrying out the process” (CIBA-GEIGY AG, priority 1989, dated 1990).
Values after ≈ are worked out from the molar mass of the structure shown.

What was measured:
[1] = system: Arthrobacter crystallopoietes ATCC 15481; assay: Agar dilution series test, minimal inhibitory concentration; assay type: cell-based; conditions: Crystallibacter crystallopoietes, ATCC15481, in vitro, read-out: Minimale Hemmkonzentration
Protocol: (§1) Hormaomycin zeigt in vitro in einem Agar-Verdünnungsreihentest eine antimikrobielle Wirkung gegen einige Bakterien, z.B. Arthrobacter crystallopoites, Arthrobacter oxydans, Corynebacterium species, Brevibacterium linens und Salmonella typhimurium. Die minimale Hemmkonzentration liegt im Bereich zwischen 0,0001 und 50 µg/ml. Die nachfolgende Tabelle offenbart einige spezifische Beispiele: […]

[2] = system: Arthrobacter oxydans ATCC 14358; assay: as above; assay type: cell-based; conditions: Pseudarthrobacter oxydans, ATCC14358, in vitro, read-out: Minimale Hemmkonzentration
Protocol: as §1

[3] = system: Brevibacterium linens ATCC 9172; assay: as above; assay type: cell-based; conditions: ATCC9172, in vitro, read-out: Minimale Hemmkonzentration
Protocol: as §1

[4] = system: Corynebacterium sp. ATCC 23830; assay: as above; assay type: cell-based; conditions: ATCC23830, in vitro, read-out: Minimale Hemmkonzentration
Protocol: as §1

[5] = system: Salmonella typhimurium ATCC 13311; assay: as above; assay type: cell-based; conditions: Salmonella enterica, in vitro, read-out: Minimale Hemmkonzentration
Protocol: as §1

[6] = system: Streptomyces griseoflavus (Tü 1306); assay: Increase of tirandamycin production in fermentation broth; assay type: cell-based
Protocol: (§2) Hormaomycin bewirkt bereits in einer Konzentration ab etwa 0,05 µg/ml bei einigen Streptomyceten-Stämmen eine Erhöhung der Bildung von Antibiotika.

[7] = system: einigen Streptomyceten-Stämmen; assay: Increase of antibiotic formation in Streptomyces strains; assay type: cell-based; conditions: lowest effective concentration; read-out: Konzentration, ab der eine Erhöhung der Bildung von Antibiotika bewirkt wird
Protocol: as §2

[8] = system: Streptomyces griseoflavus (DSM 5195); assay: Induction of aerial mycelium on test plates (paper disc on agar); assay type: cell-based; conditions: 1 µg in a paper disc on agar on which no aerial mycelium develops
From the text: Hormaomycin induziert die Luftmycelbildung von Streptomyces griseoflavus (DSM 5195) und von weiteren Streptomyces-Stämmen. […] Zusätzlich induziert die Substanz die Antibiotikaproduktion in diesen Stämmen.

[9] = system: durch anti-CD 3 monoklonale Antikörper induzierten T-Zell-Proliferation in menschlichem Blut; assay: Inhibition of T-cell proliferation induced by anti-CD 3 monoclonal antibodies in human blood (3H-thymidine); assay type: cell-based, menschlich; conditions: 50 ng/ml anti-CD 3 antibody, 48 h + 16 h 3H-thymidine, read-out: IC₅₀
Protocol: Hemmung der durch anti-CD 3 monoklonale Antikörper induzierten T-Zell-Proliferation in menschlichem Blut
Venöses menschliches Blut wird mit 10 Einheiten Heparin pro ml versetzt und im Verhältnis 1:6 (v:v) mit RPMI 1640 Medium (Gibco) verdünnt. Nach Zugabe von 50 ng/ml anti-CD 3 monoklonalen Antikörpern (TR 66, IgG1K) werden pro Loch 150 µl verdünntes Blut in eine Lochtiterplatte mit 96 Löchern eingefüllt. Dann werden pro Loch 50 µl einer Verbindung der Formeln I oder III in dem obengenannten RPMI Medium hinzugefügt. Als Referenzverbindungen verwendet man Cyclosporin A (CSA, Sandoz, Basel, Schweiz) oder Prednisolon.
Nach 48 Stunden bei 37°C und einem Gehalt von 7 Volumenprozent CO₂ in der Luft fügt man pro Loch 1.0 µCi ³H-Thymidin in 10 µl RPMI Medium (Amersham: spezifische Aktivität 5 Ci/mMol).
Nach weiteren 16 Stunden werden die Zellen mit einer 96-Loch-Erntemaschine (LKB, Bromma, Schweden) auf Glasfiberfiltern (LKB) geerntet. Nach dem Trocknen der Filter wird ihre Radioaktivität gemessen (Optiscint[LKB], Betaplatten-Scintillations-Zähler [LKB]). Die Ergebnisse werden als Durchschnittswerte der für jedes Loch bei drei verschiedenen Konzentrationen in An- und Abwesenheit der Prüfsubstanzen ermittelten cpm (counts pro Minute) ausgedrückt und die Wirkung der Substanzen wird als prozentuale Hemmung angegeben, welche folgendermassen definiert ist: [formula] […]

[10] = system: durch Interleukin-2 induzierten T-Zell-Proliferation in menschlichem Blut; assay: Inhibition of T-cell proliferation induced by interleukin-2 in human blood (3H-thymidine); assay type: cell-based, menschlich; conditions: 100 Einheiten/ml recombinant interleukin-2, read-out: IC₅₀
[11] = Solubility in solvents (qualitative); assay type: physicochemical
From the text: Hormaomycin ist neutral, löst sich gut in Methanol, Chloroform, Aceton und Essigsäureethylester und ist in Wasser oder Hexan unlöslich. Auf Dünnschichtchromatographie-Platten löscht es UV-Licht (254 nm), färbt sich beim Stehen an der Luft langsam gelb und lässt sich nach Barrollier (blaugrün) und mit Ehrlich's Reagenz (blass violett), nicht jedoch mit Ninhydrin anfärben.

C/C=C\C1CC2C(=O)OC(C)C(NC(=O)C(CC3CC3[N+](=O)[O-])NC(=O)c3ccc(Cl)n3O)C(=O)NC(C(C)c3ccccc3)C(=O)NC(CC3CC3[N+](=O)[O-])C(=O)NC(C(C)c3ccccc3)C(=O)NC(C(C)CC)C(=O)N2C1 (stereo not shown) [Hormaomycin]
MIC [1]: 0.0001 µg/mL (≈ 0.0885 nM)
MIC [2]: 0.0005 µg/mL (≈ 0.443 nM)
MIC [3]: 10 µg/mL (≈ 8850 nM)
MIC [4]: 0.1 µg/mL (≈ 88.5 nM)
MIC [5]: 50 µg/mL (≈ 44300 nM)
Produktion des Antibiotikums Tirandamycin ([6]; Hormaomycin 0,05 µg/ml added to fermentation broth): Verdoppelung
Produktion des Antibiotikums Tirandamycin ([6]; Hormaomycin 1 µg/ml added to fermentation broth): ungefähre Vervierfachung
minimal effective concentration [7]: ~0.05 µg/mL
Luftmycelbildung [8]: reichliche Luftmycelbildung
IC50 [9]: 1.5 to 15 µM
IC50 [10]: 4 to 40 µM
Löslichkeit ([11]; in Methanol, Chloroform, Aceton und Essigsäureethylester): löst sich gut
Löslichkeit ([11]; in Wasser oder Hexan): unlöslich
